# System: human NPY-Y7 receptors
# Assay: Competitive displacement of [125I]PYY on membranes of COSm6 cells transiently expressing human NPY-Y7 receptors
# Assay type: binding
# Details: for rank of potency for the Y7 receptor: inhibition of [125I]PYY (50 pM) binding, COSm6 membranes, single experiment, triplicate points
# Procedure: The results were obtained through competitive displacement of [^125I]PYY on membranes of COSm6 cells transiently expressing human NPY-Y7 receptors. Membranes were incubated with [^125I]PYY (50 pM) and increasing concentrations of peptide competitors. Data are representative of a single experiment with each point measured in triplicate.
# These experiments were conducted using COS-6 or HEX (293) cells transiently expressing recombinant Y7 receptor protein.
# pcDNA3.1-hy7 cDNA was transiently transfected into the COSm6 cell line using FUGENE and […] of DNA/106 cells. The COSm6 cells were grown in Dulbecco's modified Eagles medium supplemented with 2 mM glutamine and 10% fetal calf serum, in 5% CO2 at 37° C. Membranes were harvested with COSm6 cells 72hr post-transfection. Adherent cells were washed twice in ice-cold phosphate buffered saline and lysed using a glass homogeniser in ice-cold hypotonic buffer (50 mM Tris-HCl, pH 7.4, 0.1% bacitracin). Membranes were pelleted by high speed centrifugation (30,000×g, 15 min 4° C.), homogeniser again in ice-cold hypotonic buffer and collected again by high speed centrifugation (30,000×g, 15 min, 4° C.). […] Samples were incubated at room temperature for 2hr. Incubations were terminated by centrifugation (4 min) and pellets collected. Radioactivity was measured for 1 min in a g counter.
substance,measurement,setting,value
"(Leu31, Pro34)NPY: NPY-related peptide competitor, NPY analogue with Leu31 and Pro34",rank of potency for the Y7 receptor,,"PYY>NPY>[2-36]PYY>[3-36]NPY>[13-36]NPY>>(Leu31, Pro34)NPY>PP"
Neuropeptide Y [NPY],rank of potency for the Y7 receptor,,"PYY>NPY>[2-36]PYY>[3-36]NPY>[13-36]NPY>>(Leu31, Pro34)NPY>PP"
"PYY: peptide YY, 36 amino acids, member of the pancreatic polypeptide family",affinity of the protein encoded by the hy7 cDNA (radio-ligand binding),"COS-6 or HEX (293) cells transiently expressing recombinant Y7 receptor protein, FIG. 2",highest affinity
same,rank of potency for the Y7 receptor,,"PYY>NPY>[2-36]PYY>[3-36]NPY>[13-36]NPY>>(Leu31, Pro34)NPY>PP"
"[2-36]PYY: NPY-related peptide competitor, PYY fragment 2-36",rank of potency for the Y7 receptor,,"PYY>NPY>[2-36]PYY>[3-36]NPY>[13-36]NPY>>(Leu31, Pro34)NPY>PP"
"[3-36]NPY: NPY-related peptide competitor, NPY fragment 3-36",rank of potency for the Y7 receptor,,"PYY>NPY>[2-36]PYY>[3-36]NPY>[13-36]NPY>>(Leu31, Pro34)NPY>PP"
"[13-36]NPY: NPY-related peptide competitor, NPY fragment 13-36",rank of potency for the Y7 receptor,,"PYY>NPY>[2-36]PYY>[3-36]NPY>[13-36]NPY>>(Leu31, Pro34)NPY>PP"

# Source: patent US6803232B1, “NPY-Y7 receptor gene” (The Garvan Institute of Medical Research, priority 1998, dated 2004)
